In article PMC7865145, “Identification of existing pharmaceuticals and herbal medicines as inhibitors of SARS-CoV-2 infection” (Proceedings of the National Academy of Sciences of the …, 2021):
Where two headings read alike, the source gives them in different places.

How the values were obtained:
[1] = tested on: SARS-CoV-2 (hCoV-19/Taiwan/4/2020); test: microbe, parasite or virus in culture; format: cell-based
SARS-CoV-2 [2] = test: Quantification of SARS-CoV-2 via antibody staining (viral NP protein) in Vero E6 cells; format: cell-based; details: for IC50: viral titer by antinucleocapsid antibody
[3] = biological target: Papain-like protease (nsp3) of SARS-CoV-2 (Severe acute respiratory syndrome coronavirus 2, UniProt P0DTD1); test: biochemical; format: biochemical; details: for inhibition at 100 µM: read-out: Inhibition % at 100 uM of compounds, Papain-like protease (nsp3)
[4] = Cytotoxicity study of compounds with Vero E6 cells (CCK-8); details: African green monkey, Vero E6 cells, CC50 (μM)
in vitro = details: African green monkey, CC50 (μM); for CC50: Vero E6 cells
Vero E6 cells [5] = test: Cytotoxicity study of compounds with Vero E6 cells (CCK-8)
SARS-CoV-2 [6] = test: In vivo anti-SARS-CoV-2 assay, lung virus load; details: female golden Syrian hamsters, intranasal infection day 0, oral twice a day 30 mg/kg/d for 3 d, n = 5
Vero E6 cells [7] = tested on: Vero E6 cells
[8] = hamster, in vivo
[9] = biological target: nsp7-nsp8-nsp12 complex (Rdrp) of SARS-CoV-2 (Severe acute respiratory syndrome coronavirus 2, UniProt P0DTD1); test: Activity assay for SARS-CoV-2 RNA-dependent RNA polymerase; format: biochemical
[10] = Severe acute respiratory syndrome coronavirus 2, Vero C1008, 72 h, read-out: CPE (μM) D3
[11] = Severe acute respiratory syndrome coronavirus 2, Vero C1008, 100 PFU of SARS-CoV-2 (multiplicity of infection 0.025) in Vero E6 cells
[12] = 100 uM, FRET-based enzymatic assay, 3 independent experiments, N.I. = no inhibition
[13] = Severe acute respiratory syndrome coronavirus 2, Vero C1008, minimal dose that showed antiinfective effect after virus challenge, incubation 72 h (D3), Vero E6, read-out: CPE (μM) D3
[14] = Severe acute respiratory syndrome coronavirus 2, Vero C1008, minimal dose that showed antiinfective effect after virus challenge, incubation 120 h (D5), Vero E6, N.I. = no inhibition, dash = cytotoxicity was observed, read-out: CPE (μM) D5
[15] = 100 PFU of SARS-CoV-2 (multiplicity of infection 0.025) in Vero E6 cells
[16] = Severe acute respiratory syndrome coronavirus 2, Vero C1008, 120 h, […], N.I. = no inhibition, dash = cytotoxicity was observed, read-out: CPE (μM) D5

Row | Structure (SMILES) | minimal effective concentration [1, 10] [µM] | IC50 (SARS-CoV-2 [2]; [11]) [µM] | Inhibition % at 100 uM of compounds, Papain-like protease (nsp3) [3, 12] | CC50 at 24 h [4] [µM] | CC50 (in vitro) [µM] | minimal effective concentration [1, 13] [µM] | minimal effective concentration [1, 14] [µM] | IC50 (SARS-CoV-2 [2]; [15]) [µM] | lung virus load vs control (drugs) (SARS-CoV-2 [6]) | also measured
1 | CC(C)(C)c1cc(C(C)(C)C)c(NC(=O)c2c[nH]c3ccccc3c2=O)cc1O [Ivacaftor 9, Ivacaftor] | 5 | 3.7 | N.I. | 12.9 |  |  |  |  |  | CPE (μM) D5 ([1]; […], N.I. = no inhibition, dash = cytotoxicity was observed): N.I.
2 | CC[C@H](C)[C@H]1O[C@]2(CC[C@@H]1C)C[C@@H]1C[C@@H](C/C=C(\C)[C@@H](O[C@H]3C[C@H](OC)[C@@H](O[C@H]4C[C@H](OC)[C@@H](O)[C@H](C)O4)[C@H](C)O3)[C@@H](C)/C=C/C=C3\CO[C@@H]4[C@H](O)C(C)=C[C@@H](C(=O)O1)[C@]34O)O2 [Ivermectin 6, Ivermectin] | 2.5 | 4.1 | N.I. |  | 13.2 |  |  |  |  | cytotoxicity in the cell-based assay (Vero E6 cells [5]; Vero E6): high cytotoxicity
3 | OC(c1cc(C(F)(F)F)nc2c(C(F)(F)F)cccc12)C1CCCCN1 (stereo not shown) [Mefloquine 8, Mefloquine] |  | 3.24 | N.I. |  |  | 5 | 10 | 3.2 | significantly reduced viral load | 
4 | CC[C@@]1([C@@H]2O[C@@H]([C@H]3O[C@@](O)(CO)[C@H](C)C[C@@H]3C)C[C@@H]2C)CC[C@H]([C@]2(C)CC[C@]3(C[C@H](O)[C@@H](C)[C@@H]([C@@H](C)[C@@H](OC)[C@H](C)C(=O)O)O3)O2)O1 [Monensin 14, Monensin] | 0.117 | 6.38 | N.I. |  | 6.66 |  |  | 6.4 |  | minimal effective concentration [1, 16]: 2.5 µM; selectivity index (antiviral effect vs cytotoxicity) (SARS-CoV-2 [2]; Vero E6, CC50 vs IC50): no selectivity; CC50 (Vero E6 cells [5]; Vero E6 cells): 6.6 µM
5 | CO/N=C1\C[C@]2(C[C@@H]3C[C@@H](C/C=C(\C)C[C@@H](C)/C=C/C=C4\CO[C@@H]5[C@H](O)C(C)=C[C@@H](C(=O)O3)[C@]45O)O2)O[C@H](/C(C)=C/C(C)C)[C@H]1C [Moxidectin 7, Moxidectin] |  | 3.17 | N.I. |  |  | 5 | 10 | 3.1 |  | cytotoxicity in the cell-based assay (Vero E6 cells [7]): high cytotoxicity; CC50 (Vero E6 cells [7]; African green monkey, 24 h): 6.9 µM; CC50 at 24 h (in vitro): 6.88 µM
6 | Cc1c(O)cccc1C(=O)N[C@@H](CSc1ccccc1)[C@H](O)CN1C[C@H]2CCCC[C@H]2C[C@H]1C(=O)NC(C)(C)C [Nelfinavir 1, Nelfinavir] |  | 3.3 |  | 12.3 |  | 5 | 10 |  | good antiviral effects | fold higher anti-SARS-CoV-2 activity than boceprevir in the cell-based assay (SARS-CoV-2 [2]; Vero E6): 15 fold; inhibition at 100 µM [3, 12]: 3.5%
7 | OC1(c2ccc(Cl)c(C(F)(F)F)c2)CCN(CCCC(c2ccc(F)cc2)c2ccc(F)cc2)CC1 [Penfluridol 11, Penfluridol] |  | 2.41 | N.I. | 12.9 |  | 5 | 10 | 2.4 |  | 
8 | CC[C@@H](C(=O)[C@@H](C)[C@@H](O)[C@H](C)[C@@H]1O[C@@H]([C@@H](CC)C(=O)O)CC[C@@H]1C)[C@H]1O[C@]2(C=C[C@@H](O)[C@]3(CC[C@@](C)([C@H]4CC[C@](O)(CC)[C@H](C)O4)O3)O2)[C@H](C)C[C@@H]1C [Salinomycin 13, Salinomycin] | 0.039 | 0.000479 |  |  | 13.1 |  |  | 0.00048 | no significant antiinfective effect | minimal effective concentration [1, 16]: 0.156 µM; selectivity ratio (SARS-CoV-2 [2]; African green monkey, Vero E6, CC50 vs IC50, read-out: selectivity index (antiviral effect vs cytotoxicity)): > 100; body-weight change after 3-d treatment [8]: higher weight loss than the control group; inhibition at 100 µM [3]: 9.4%
9 | Nc1nc(=S)c2ncn([C@@H]3O[C@H](COP(=O)(O)OP(=O)(O)OP(=O)(O)O)[C@@H](O)[C@H]3O)c2[nH]1 [TGTP, thioguanosine triphosphate] |  |  |  |  |  |  |  |  |  | inhibition against Rdrp in vitro [9]: no inhibition
10 | Nc1nc2nc[nH]c2c(=S)[nH]1 [Thioguanine 3, Thioguanine] |  | 1.67 |  | 25.4 |  | 1.25 | 2.5 | 1.7 | no significant antiinfective effect | 
